# Experimental data taken from PubChem BioAssay AID2060494 (Molecular Pharmacology Branch, DTP, NCI, 2025).
# pIC50: −log10 of the molar value.
# System: 435261-313-R-J1-PDC complex spheroid viability
# Assay: Anticancer human tumor 435261-313-R-J1-PDC patient-derived colon adenocarcinoma cell line growth inhibition [GQUAD]
# Settings: for pIC50: curve of first compound; for viability, T/C: stronger effect = lower value
# How it was run: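 Multi-cell-type spheroids of tumor cells with HUVEC and mesenchymal stem cells, treated with drug combinations. Concentrations descend in half-log steps from near clinical Cmax, or from 10 microM where Cmax is unknown; viability read-out.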
# [1] = second compound 0.0316 µM, first compound 0.0316 µM
# [2] = second compound 0.0316 µM, first compound 0.316 µM
# [3] = second compound 0.1 µM, first compound 0.0316 µM
# [4] = second compound 0.1 µM, first compound 0.316 µM
# [5] = second compound 0.316 µM, first compound 0.0316 µM
# [6] = second compound 0.316 µM, first compound 0.316 µM
# [7] = second compound 1 µM, first compound 0.0316 µM
# [8] = second compound 1 µM, first compound 0.316 µM
# [9] = second compound 3.16 µM, first compound 0.0316 µM
# [10] = second compound 3.16 µM, first compound 0.316 µM
# [11] = second compound 10 µM, first compound 0.0316 µM
# [12] = second compound 10 µM, first compound 0.316 µM
# [13] = second compound 0.0316 µM, first compound 0.000999 µM
# [14] = second compound 0.0316 µM, first compound 0.00316 µM
# [15] = second compound 0.0316 µM, first compound 0.00999 µM
# [16] = second compound 0.0316 µM, first compound 0.0999 µM
# [17] = second compound 0.1 µM, first compound 0.000999 µM
# [18] = second compound 0.1 µM, first compound 0.00316 µM
# [19] = second compound 0.1 µM, first compound 0.00999 µM
# [20] = second compound 0.1 µM, first compound 0.0999 µM
# [21] = second compound 0.316 µM, first compound 0.000999 µM
# [22] = second compound 0.316 µM, first compound 0.00316 µM
# [23] = second compound 0.316 µM, first compound 0.00999 µM
# [24] = second compound 0.316 µM, first compound 0.0999 µM
# [25] = second compound 1 µM, first compound 0.000999 µM
# [26] = second compound 1 µM, first compound 0.00316 µM
# [27] = second compound 1 µM, first compound 0.00999 µM
# [28] = second compound 1 µM, first compound 0.0999 µM
# [29] = second compound 3.16 µM, first compound 0.000999 µM
# [30] = second compound 3.16 µM, first compound 0.00316 µM
# [31] = second compound 3.16 µM, first compound 0.00999 µM
# [32] = second compound 3.16 µM, first compound 0.0999 µM
# [33] = second compound 10 µM, first compound 0.000999 µM
# [34] = second compound 10 µM, first compound 0.00316 µM
# [35] = second compound 10 µM, first compound 0.00999 µM
# [36] = second compound 10 µM, first compound 0.0999 µM
# 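Note: spheroids exposed to the agents for seven days before readout.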
# 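Throughout, for viability, T/C: percent of vehicle control viability with DMSO wells as 100%.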
structure (smiles),measurement,setting,value
C=CC(=O)N1CCN(c2nc(=O)n(-c3c(C)ccnc3C(C)C)c3nc(-c4c(O)cccc4F)c(F)cc23)C(C)C1 (stereo unspecified) + CN(C)c1ccc(Nc2c3ccc(NC(=O)CCN4CCCC4)cc3nc3cc(NC(=O)CCN4CCCC4)ccc23)cc1,pIC50,second compound 0.0316 µM,< 5.00
same,pIC50,second compound 0.1 µM,< 5.00
same,pIC50,second compound 0.316 µM,< 5.00
same,pIC50,second compound 1 µM,< 5.00
same,pIC50,second compound 3.16 µM,< 5.00
same,pIC50,second compound 10 µM,> 7.50
same,"viability, T/C",[1],98.5%
same,"viability, T/C","second compound 0.0316 µM, first compound 0.1 µM",146%
same,"viability, T/C",[2],119%
same,"viability, T/C","second compound 0.0316 µM, first compound 1 µM",97.6%
same,"viability, T/C","second compound 0.0316 µM, first compound 3.16 µM",100%
same,"viability, T/C","second compound 0.0316 µM, first compound 10 µM",105%
same,"viability, T/C",[3],111%
same,"viability, T/C","second compound 0.1 µM, first compound 0.1 µM",109%
same,"viability, T/C",[4],111%
same,"viability, T/C","second compound 0.1 µM, first compound 1 µM",138%
same,"viability, T/C","second compound 0.1 µM, first compound 3.16 µM",115%
same,"viability, T/C","second compound 0.1 µM, first compound 10 µM",173%
same,"viability, T/C",[5],159%
same,"viability, T/C","second compound 0.316 µM, first compound 0.1 µM",106%
same,"viability, T/C",[6],123%
same,"viability, T/C","second compound 0.316 µM, first compound 1 µM",120%
same,"viability, T/C","second compound 0.316 µM, first compound 3.16 µM",111%
same,"viability, T/C","second compound 0.316 µM, first compound 10 µM",103%
same,"viability, T/C",[7],122%
same,"viability, T/C","second compound 1 µM, first compound 0.1 µM",101%
same,"viability, T/C",[8],149%
same,"viability, T/C","second compound 1 µM, first compound 1 µM",99.8%
same,"viability, T/C","second compound 1 µM, first compound 3.16 µM",145%
same,"viability, T/C","second compound 1 µM, first compound 10 µM",109%
same,"viability, T/C",[9],69.4%
same,"viability, T/C","second compound 3.16 µM, first compound 0.1 µM",98.3%
same,"viability, T/C",[10],114%
same,"viability, T/C","second compound 3.16 µM, first compound 1 µM",113%
same,"viability, T/C","second compound 3.16 µM, first compound 3.16 µM",102%
same,"viability, T/C","second compound 3.16 µM, first compound 10 µM",87.1%
same,"viability, T/C",[11],30.8%
same,"viability, T/C","second compound 10 µM, first compound 0.1 µM",45.6%
same,"viability, T/C",[12],54%
same,"viability, T/C","second compound 10 µM, first compound 1 µM",71.5%
same,"viability, T/C","second compound 10 µM, first compound 3.16 µM",70.9%
same,"viability, T/C","second compound 10 µM, first compound 10 µM",30.2%
CC[C@@]1(O)C(=O)OCc2c1cc1n(c2=O)Cc2cc3c(CN(C)C)c(O)ccc3nc2-1 + CN(C)c1ccc(Nc2c3ccc(NC(=O)CCN4CCCC4)cc3nc3cc(NC(=O)CCN4CCCC4)ccc23)cc1,pIC50,second compound 0.0316 µM,< 6.50
same,pIC50,second compound 0.1 µM,< 6.50
same,pIC50,second compound 0.316 µM,< 6.50
same,pIC50,second compound 1 µM,< 6.50
same,pIC50,second compound 3.16 µM,7.14
same,pIC50,second compound 10 µM,> 9.00
same,"viability, T/C",[13],110%
same,"viability, T/C",[14],96.6%
same,"viability, T/C",[15],116%
same,"viability, T/C",[1],87.2%
same,"viability, T/C",[16],67.5%
same,"viability, T/C",[2],88.7%
same,"viability, T/C",[17],119%
same,"viability, T/C",[18],111%
same,"viability, T/C",[19],101%
same,"viability, T/C",[3],84.6%
same,"viability, T/C",[20],76.1%
same,"viability, T/C",[4],77.2%
same,"viability, T/C",[21],108%
same,"viability, T/C",[22],99.6%
same,"viability, T/C",[23],87.5%
same,"viability, T/C",[5],64.2%
same,"viability, T/C",[24],73.7%
same,"viability, T/C",[6],74.2%
same,"viability, T/C",[25],88.4%
same,"viability, T/C",[26],99.3%
same,"viability, T/C",[27],87.8%
same,"viability, T/C",[7],81.5%
same,"viability, T/C",[28],82.3%
same,"viability, T/C",[8],84.1%
same,"viability, T/C",[29],75.2%
same,"viability, T/C",[30],62.8%
same,"viability, T/C",[31],78.6%
same,"viability, T/C",[9],63.4%
same,"viability, T/C",[32],45.3%
same,"viability, T/C",[10],44.3%
same,"viability, T/C",[33],39.9%
same,"viability, T/C",[34],40.5%
same,"viability, T/C",[35],33.6%
same,"viability, T/C",[11],36.5%
same,"viability, T/C",[36],29.8%
same,"viability, T/C",[12],22%
CCc1c2c(nc3ccc(O)cc13)-c1cc3c(c(=O)n1C2)COC(=O)[C@]3(O)CC + CN(C)c1ccc(Nc2c3ccc(NC(=O)CCN4CCCC4)cc3nc3cc(NC(=O)CCN4CCCC4)ccc23)cc1,pIC50,second compound 0.0316 µM,< 6.50
same,pIC50,second compound 0.1 µM,6.62
same,pIC50,second compound 0.316 µM,7.02
same,pIC50,second compound 1 µM,6.98
same,pIC50,second compound 3.16 µM,7.36
same,pIC50,second compound 10 µM,> 9.00
same,"viability, T/C",[13],111%
same,"viability, T/C",[14],103%
same,"viability, T/C",[15],73.4%
same,"viability, T/C",[1],69.2%
same,"viability, T/C",[16],65.1%
same,"viability, T/C",[2],48.6%
same,"viability, T/C",[17],86.2%
same,"viability, T/C",[18],91.2%
same,"viability, T/C",[19],72.3%
same,"viability, T/C",[3],74.5%
same,"viability, T/C",[20],72.4%
same,"viability, T/C",[4],42.3%
same,"viability, T/C",[21],76.4%
same,"viability, T/C",[22],77.1%
same,"viability, T/C",[23],66.7%
same,"viability, T/C",[5],78.8%
same,"viability, T/C",[24],48.9%
same,"viability, T/C",[6],45.1%
same,"viability, T/C",[25],62.2%
same,"viability, T/C",[26],81.2%
same,"viability, T/C",[27],65.2%
same,"viability, T/C",[7],70.9%
same,"viability, T/C",[28],50.4%
same,"viability, T/C",[8],39.3%
same,"viability, T/C",[29],50.2%
same,"viability, T/C",[30],57%
same,"viability, T/C",[31],56.8%
same,"viability, T/C",[9],56.2%
same,"viability, T/C",[32],37.1%
same,"viability, T/C",[10],22.2%
same,"viability, T/C",[33],34.9%
same,"viability, T/C",[34],30.8%
same,"viability, T/C",[35],29.8%
same,"viability, T/C",[11],27.1%
same,"viability, T/C",[36],18.6%
same,"viability, T/C",[12],13.6%
